Data taken from publication PMC9598880, “Activity of a Novel Anti-Inflammatory Agent F-3,6′-dithiopomalidomide as a Treatment for Traumatic Brain Injury” (Biomedicines, 2022).

Target: T1, cereblon (Homo sapiens, UniProt Q96SW2)
T1 construct: gene CRBN; CRBN/DDB1−CUL4A−Rbx1 complex (BPS Bioscience catalog no. 79770); with DDB1−CUL4A−Rbx1; BRD3
Assay: AlphaScreen bead-based cereblon/BRD3 binding assay (called FRET in the text)

T1 sequence (Q96SW2 whole entry): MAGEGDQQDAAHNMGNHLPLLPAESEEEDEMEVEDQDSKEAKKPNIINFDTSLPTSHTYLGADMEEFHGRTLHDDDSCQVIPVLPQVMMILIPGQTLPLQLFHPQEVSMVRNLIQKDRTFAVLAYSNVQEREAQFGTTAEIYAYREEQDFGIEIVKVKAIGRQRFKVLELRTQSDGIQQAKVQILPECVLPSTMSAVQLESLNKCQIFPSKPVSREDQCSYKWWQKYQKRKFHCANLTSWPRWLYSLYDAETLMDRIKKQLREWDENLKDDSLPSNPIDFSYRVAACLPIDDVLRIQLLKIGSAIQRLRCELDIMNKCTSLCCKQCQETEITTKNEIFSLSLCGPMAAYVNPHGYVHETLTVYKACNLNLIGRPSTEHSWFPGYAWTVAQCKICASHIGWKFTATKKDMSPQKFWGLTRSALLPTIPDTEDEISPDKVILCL
T1 sequence (Q16531 2-1140 partner): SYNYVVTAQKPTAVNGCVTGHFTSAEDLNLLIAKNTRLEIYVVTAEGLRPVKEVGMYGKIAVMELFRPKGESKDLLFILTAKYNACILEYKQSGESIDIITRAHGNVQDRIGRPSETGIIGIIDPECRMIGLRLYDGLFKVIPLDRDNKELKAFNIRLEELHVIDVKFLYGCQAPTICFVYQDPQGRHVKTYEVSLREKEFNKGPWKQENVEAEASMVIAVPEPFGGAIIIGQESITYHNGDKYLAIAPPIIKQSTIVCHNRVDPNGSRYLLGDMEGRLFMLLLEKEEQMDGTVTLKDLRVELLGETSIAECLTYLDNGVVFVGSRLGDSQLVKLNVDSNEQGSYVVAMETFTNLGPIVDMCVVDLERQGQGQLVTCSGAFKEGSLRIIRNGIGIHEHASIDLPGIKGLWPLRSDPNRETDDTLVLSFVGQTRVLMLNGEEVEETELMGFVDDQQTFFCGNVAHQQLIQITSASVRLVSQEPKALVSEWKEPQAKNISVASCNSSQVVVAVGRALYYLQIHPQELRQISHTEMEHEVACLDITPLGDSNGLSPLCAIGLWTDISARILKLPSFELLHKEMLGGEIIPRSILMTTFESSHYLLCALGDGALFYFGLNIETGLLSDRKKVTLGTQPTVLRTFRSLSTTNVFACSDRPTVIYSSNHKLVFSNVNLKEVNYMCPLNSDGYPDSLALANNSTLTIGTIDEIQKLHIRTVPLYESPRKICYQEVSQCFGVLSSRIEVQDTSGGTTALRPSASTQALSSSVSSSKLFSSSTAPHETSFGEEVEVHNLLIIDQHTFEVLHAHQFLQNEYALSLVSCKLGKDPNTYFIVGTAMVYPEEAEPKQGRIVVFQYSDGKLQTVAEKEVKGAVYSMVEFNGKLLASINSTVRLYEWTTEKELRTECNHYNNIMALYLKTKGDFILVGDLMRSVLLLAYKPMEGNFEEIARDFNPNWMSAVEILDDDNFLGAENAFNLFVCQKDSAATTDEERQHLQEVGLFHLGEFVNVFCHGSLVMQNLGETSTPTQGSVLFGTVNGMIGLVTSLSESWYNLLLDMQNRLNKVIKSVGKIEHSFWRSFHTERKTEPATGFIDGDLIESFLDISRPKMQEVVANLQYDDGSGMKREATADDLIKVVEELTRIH
T1 sequence (Q13619 whole entry partner): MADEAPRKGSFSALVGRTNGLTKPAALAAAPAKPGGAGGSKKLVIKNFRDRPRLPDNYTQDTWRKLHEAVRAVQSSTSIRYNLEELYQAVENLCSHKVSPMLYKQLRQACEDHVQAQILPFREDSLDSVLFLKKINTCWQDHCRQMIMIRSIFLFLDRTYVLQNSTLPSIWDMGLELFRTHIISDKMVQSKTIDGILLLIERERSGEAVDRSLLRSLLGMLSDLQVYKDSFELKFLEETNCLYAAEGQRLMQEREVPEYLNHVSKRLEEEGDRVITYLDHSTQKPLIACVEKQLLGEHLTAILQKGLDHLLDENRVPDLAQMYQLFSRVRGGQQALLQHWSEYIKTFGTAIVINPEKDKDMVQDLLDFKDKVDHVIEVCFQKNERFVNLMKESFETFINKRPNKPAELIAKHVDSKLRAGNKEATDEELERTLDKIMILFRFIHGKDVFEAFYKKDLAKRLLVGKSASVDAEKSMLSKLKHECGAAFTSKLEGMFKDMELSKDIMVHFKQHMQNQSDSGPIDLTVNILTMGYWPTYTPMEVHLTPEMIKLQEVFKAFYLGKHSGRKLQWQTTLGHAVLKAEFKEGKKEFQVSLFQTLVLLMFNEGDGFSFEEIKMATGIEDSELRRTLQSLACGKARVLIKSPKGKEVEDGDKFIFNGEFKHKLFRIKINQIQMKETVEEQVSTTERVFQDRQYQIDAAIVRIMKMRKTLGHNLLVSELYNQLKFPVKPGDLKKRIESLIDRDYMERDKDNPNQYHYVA
T1 sequence (P62877 whole entry partner): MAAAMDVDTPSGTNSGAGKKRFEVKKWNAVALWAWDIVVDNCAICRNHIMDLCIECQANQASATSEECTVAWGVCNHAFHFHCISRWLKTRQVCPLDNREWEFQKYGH

IC50: 2.66 µM
SMILES: Nc1ccc(F)c2c1C(=S)N(C1CCC(=S)NC1=O)C2=O (stereo not shown) [F-3,6′-DP]
